Results reported in publication PMC10325900, “A conserved motif in the disordered linker of human MLH1 is vital for DNA mismatch repair and its function is diminished by a cancer family mutation” (Nucleic Acids Research, 2023).
Blank lines part the entries; values can stand above or below the molecule they belong to.

Key:
MLH1-ΔConMot-PMS2 = target: T1, MLH1-ΔConMot-PMS2 (Homo sapiens, UniProt P40692+P54278, DEL377-396); assay: DNA mismatch repair (MMR) complementation assay with peptide, MLH1-ΔConMot variant; assay type: biochemical
T1 construct: The pcDNA3 expression vector containing the entire open reading frame of human MLH1; expressed in transfected cells; host or cells: HEK293T (MLH1-deficient), transiently co-transfected
T1 sequence (P40692 with tags, fused parts or gaps DEL377-396): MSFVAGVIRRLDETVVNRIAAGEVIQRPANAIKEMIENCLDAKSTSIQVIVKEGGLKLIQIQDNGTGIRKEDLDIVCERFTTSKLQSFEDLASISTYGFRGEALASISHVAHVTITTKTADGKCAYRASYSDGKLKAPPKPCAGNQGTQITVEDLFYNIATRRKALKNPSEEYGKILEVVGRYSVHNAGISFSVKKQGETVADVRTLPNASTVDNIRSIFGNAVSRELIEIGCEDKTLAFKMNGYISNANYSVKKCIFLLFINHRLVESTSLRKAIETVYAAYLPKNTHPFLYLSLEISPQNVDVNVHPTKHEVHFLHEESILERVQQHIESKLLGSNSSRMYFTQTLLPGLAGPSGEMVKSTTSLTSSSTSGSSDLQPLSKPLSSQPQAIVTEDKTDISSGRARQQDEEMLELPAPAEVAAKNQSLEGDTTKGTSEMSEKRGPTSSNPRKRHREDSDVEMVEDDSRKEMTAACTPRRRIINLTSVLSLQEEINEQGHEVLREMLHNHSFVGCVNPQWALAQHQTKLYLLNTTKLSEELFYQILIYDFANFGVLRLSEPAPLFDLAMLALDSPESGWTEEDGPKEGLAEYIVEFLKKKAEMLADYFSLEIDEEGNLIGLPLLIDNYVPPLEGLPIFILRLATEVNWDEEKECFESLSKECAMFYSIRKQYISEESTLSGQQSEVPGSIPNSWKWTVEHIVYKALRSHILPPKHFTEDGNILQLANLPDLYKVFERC
T1 sequence (P54278 1-862 partner): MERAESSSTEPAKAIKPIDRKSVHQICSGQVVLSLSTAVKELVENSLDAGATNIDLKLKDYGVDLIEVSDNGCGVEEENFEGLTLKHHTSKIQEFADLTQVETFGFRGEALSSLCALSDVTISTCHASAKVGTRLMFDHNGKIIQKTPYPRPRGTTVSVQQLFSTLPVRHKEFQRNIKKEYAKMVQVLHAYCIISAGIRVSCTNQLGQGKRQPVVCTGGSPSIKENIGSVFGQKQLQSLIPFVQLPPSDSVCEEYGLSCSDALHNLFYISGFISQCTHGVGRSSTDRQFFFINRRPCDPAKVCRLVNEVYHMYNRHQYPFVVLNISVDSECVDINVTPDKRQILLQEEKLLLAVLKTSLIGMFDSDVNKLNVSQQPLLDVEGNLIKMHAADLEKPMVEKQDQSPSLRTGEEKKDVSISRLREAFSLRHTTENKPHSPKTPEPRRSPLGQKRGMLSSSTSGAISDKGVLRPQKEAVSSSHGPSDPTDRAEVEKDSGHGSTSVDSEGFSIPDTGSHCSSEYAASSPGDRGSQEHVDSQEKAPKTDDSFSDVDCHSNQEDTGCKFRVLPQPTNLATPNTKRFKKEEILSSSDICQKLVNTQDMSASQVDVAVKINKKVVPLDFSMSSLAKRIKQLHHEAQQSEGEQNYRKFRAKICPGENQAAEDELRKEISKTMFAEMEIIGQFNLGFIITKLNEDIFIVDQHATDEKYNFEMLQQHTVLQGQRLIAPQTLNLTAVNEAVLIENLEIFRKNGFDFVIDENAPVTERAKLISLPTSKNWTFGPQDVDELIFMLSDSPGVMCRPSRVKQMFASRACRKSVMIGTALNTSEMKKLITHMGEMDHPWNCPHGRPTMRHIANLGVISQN
Description: Mismatch repair activity was assessed as described in detail before ([79],[81]) (Supplementary Figure S3). […] Mismatched DNA plasmid substrate (Supplementary Figure S3) prepared according to previously published procedures ([81–83]) was added, and reactions in a final volume of 25 μl were incubated at 37°C for 15 min. Repair efficiency was scored by purifying the mismatched DNA plasmid from the reaction and assessing the fraction of homoduplex sequence by restriction digestion of the mismatched site using EcoRV. The substrate was additionally linearized with AseI.
For complementation assays with peptide, the indicated peptide(s) were used at stock concentrations of 50 or 500 μM in HEPES–KOH 20 mM pH 7.6 and supplemented to the MMR reactions.
Figure 4. Reaction of DNA mismatch repair to addition of ConMot peptide. (A) Nuclear extract of MLH1-proficient HEK293 cells was used for performing the DNA mismatch repair reaction. Four reactions were undertaken, with two reactions supplemented with either 7.5 μM or 75 μM ConMot-32 peptide. A negative control reaction was performed by omitting the 37°C repair incubation. (B) MMR reactions were performed with nuclear extract of MLH1-deficient HEK293T cells supplemented with extract of cells transfected either with wildtype MLH1-PMS2 (positive control) or with MLH1-ΔConMot-PMS2. To these MMR reactions, different peptides were added at a concentration of 75 μM: A ConMot-32 peptide (A), a Scramble-32 peptide (B) in which the conserved ConMot sequence is scrambled, and a short ConMot-20 peptide (C) that only contains the twenty highly conserved ConMot residues. The peptide sequences are given below the gel image. (C) The concentration-dependence of the MMR-activating effect of the ConMot-32 peptide observed in (B) was measured over a concentration range from 1–75 μM. (D) Theoretical binding curves of a ligand (peptide) to a protein were calculated for dissociation constants (KD) of 1, 5 and 10 μM for a protein concentration as present for MLH1-PMS2 in the MMR assay reactions (see also Supplementary Figure S3). Into this diagram, the average MMR activities (and standard deviations) measured in >3 of the experiment exemplarily shown in C were introduced as bars at ConMot-32 peptide concentrations of 1, 2.5, 7.5, 18 and 75 μM.
Second, we used extract of the repair-deficient cell line HEK293T supplemented with either wildtype MutLα (MLH1-PMS2) or the ΔConMot deletion variant, corresponding to experiment shown in Figure 2B. In this experiment, we again added ConMot peptide.
We investigated the effect of the ConMot peptide more closely by titrating the required peptide concentrations for activation. We determined that the mismatch repair reactions performed in this study contained approximately 280 fmol MLH1 (Supplementary Figure S4A and B), which is in good agreement with previous quantifications of MLH1-PMS2 in cells and extracts ([96]). […] Dissociation constants (KD) for peptides to proteins are typically in the range of 1–10 μM ([97]). We compared the measured concentration-dependent MMR activities with theoretical binding curves of (peptide) ligands to (protein) substrates for KD values of 1, 5 and 10 μM (Supplementary Figure S4C) at the determined MLH1 concentration. […] It is therefore plausible that a binding reaction of the ConMot peptide (to a protein) underlies the restauration of MMR activity. […]
Deletion C on M ot (∆Co nMot) c.1129_1188del CTGCAGCCTCTGAGCAAA […]
Del et i on comp are (∆Compare) c.1221_1280del […] ACTGGACAGGGGTTTGCT
Scramble c.1147_1160delinsGAC ggtacgtTCCCGGGAACAGAAGCT atagtgtcCTGGTGGGCATAGACCT
p.(M383_D387delinsDTMVR) ACTATGGTAC G T TATC
ConMot hy bri d gcataTCTGCAGCCTCTGAGCAA acagg[…]
Supplementary Table 1: Analyzed variant inf ormation.
Variant descriptions confer to HGVS format and refer to the MLH1 reference cDNA (NM_000249.4) […]

yMLH1-yPMS1 = test system: yMLH1-yPMS1; set-up: method as in Torres et al. [100]; details: 25mer yeast peptide, molar ratio 0-250-500-1000 to yMLH1-PMS1, MLH1-PMS2 35 nM, 1 mM Mn2+; ref Torres et al. [100]; cited from earlier work
[1] = target: MLH1-ΔConMot-PMS2 (MutLα heterodimer with the ConMot deletion variant of MLH1) (human) (UniProt P40692)

effect of 20mer-ConMot on MMR restauration by the 32mer-ConMot (MLH1-ΔConMot-PMS2; Figure 4B, peptides at 75 μM, combined peptides, 37°C, 15 min): did not affect MMR restauration
effect of peptide on MMR (summary in Supplementary Table 2) (MLH1-ΔConMot-PMS2; molar ratio 0-860-2300-8600 to hMLH1-PMS2, Tris-HCl pH 7.5, 5 mM Mg2+, 1.5 mM ATP): inactive
Molecule: KVYAHQMVRTDSREQKLDAF [ConMot-20]

restoration of DNA mismatch repair activity of the ΔConMot variant (MLH1-ΔConMot-PMS2; peptide 75 μM (Figure 4B), HEK293T nuclear extract 50 μg + 5 μg transfected extract, 25 μl, 37°C, 15 min, EcoRV/AseI digestion, agarose gel): did not restore MMR activity
Molecule: SGSSDMVQFEKLKDRRSQDATYVAHLQPLSKP [Scramble-32]

Molecule: KAKRQENKL VRI D ASQAKITSFLSS [25mer]
effect of peptide on endonuclease activation of yMLH1-yPMS1 (yMLH1-yPMS1): inhibiting endonuclease activit y

KD read by comparing the concentration-dependent MMR restoration with theoretical binding curves of a peptide ligand to a protein at the determined MLH1 concentration [1]: 7.5 µM
Molecule: SGSSDKVYAHQMVRTDSREQKLDAFLQPLSK [ConMot-32 peptide (32-mer peptide containing the sequence of the MLH1-ConMot)]
